One may read the IC50 as the point on the concentration scale where inhibition reaches its midpoint.

Where only a bound is given, the exact number is not on record here.

The target in one experiment is α4β7 integrin (Homo sapiens (Human), UniProt P13612+P26010). In words: Integrin Adhesion Assay: Protocol 4 (MAdCAM-coated plate, RPMI-8866 cells with stable LOF mutation of the ITGB1 gene). It is filed as cell-based. The conditions noted are these: RPMI-8866 cells with stable LOF mutation of the ITGB1 gene; read-out: Mean IC50 α4β7 KO^a. An outline of the steps:
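RPMI-8866 cells with CRISPR/Cas9 knockout of ITGB1 (2×10^6/mL) were added to MAdCAM-coated wells with compound (1% DMSO) in HEPES/NaCl buffer with 1 mM MnCl2, 0.1 mM CaCl2 and 1% BSA, then incubated 1 h at 37 °C. After four washes, adherent cells were quantified by CellTiter-Glo luminescence. Percent inhibition versus DMSO and control compound was fitted to 4-parameter curves.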

Another experiment addresses α4β1 integrin (Homo sapiens (Human), UniProt P05556+P13612). The experiment is described as follows: Integrin Adhesion Assay: Protocol 5 (VCAM-coated plate, RPMI-8866 cells with stable LOF mutation of the ITGB7 gene). It is filed as cell-based. The conditions noted are these: RPMI-8866 cells with stable LOF mutation of the ITGB7 gene; read-out: Mean IC50 α4β1 KO^b. An outline of the steps:
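RPMI-8866 B cells with CRISPR/Cas9 ITGB7 knockout (clonal, verified by flow cytometry) adhered to VCAM-coated wells for 1 h at 37° C in HEPES/NaCl buffer with 1 mM MnCl2, 0.1 mM CaCl2, 1% BSA, 1% DMSO. Bound cells quantified by CellTiter-Glo luminescence after washing; % inhibition versus DMSO and control, 4-parameter fit.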

α4β1 integrin, sequence (P13612 34-1032): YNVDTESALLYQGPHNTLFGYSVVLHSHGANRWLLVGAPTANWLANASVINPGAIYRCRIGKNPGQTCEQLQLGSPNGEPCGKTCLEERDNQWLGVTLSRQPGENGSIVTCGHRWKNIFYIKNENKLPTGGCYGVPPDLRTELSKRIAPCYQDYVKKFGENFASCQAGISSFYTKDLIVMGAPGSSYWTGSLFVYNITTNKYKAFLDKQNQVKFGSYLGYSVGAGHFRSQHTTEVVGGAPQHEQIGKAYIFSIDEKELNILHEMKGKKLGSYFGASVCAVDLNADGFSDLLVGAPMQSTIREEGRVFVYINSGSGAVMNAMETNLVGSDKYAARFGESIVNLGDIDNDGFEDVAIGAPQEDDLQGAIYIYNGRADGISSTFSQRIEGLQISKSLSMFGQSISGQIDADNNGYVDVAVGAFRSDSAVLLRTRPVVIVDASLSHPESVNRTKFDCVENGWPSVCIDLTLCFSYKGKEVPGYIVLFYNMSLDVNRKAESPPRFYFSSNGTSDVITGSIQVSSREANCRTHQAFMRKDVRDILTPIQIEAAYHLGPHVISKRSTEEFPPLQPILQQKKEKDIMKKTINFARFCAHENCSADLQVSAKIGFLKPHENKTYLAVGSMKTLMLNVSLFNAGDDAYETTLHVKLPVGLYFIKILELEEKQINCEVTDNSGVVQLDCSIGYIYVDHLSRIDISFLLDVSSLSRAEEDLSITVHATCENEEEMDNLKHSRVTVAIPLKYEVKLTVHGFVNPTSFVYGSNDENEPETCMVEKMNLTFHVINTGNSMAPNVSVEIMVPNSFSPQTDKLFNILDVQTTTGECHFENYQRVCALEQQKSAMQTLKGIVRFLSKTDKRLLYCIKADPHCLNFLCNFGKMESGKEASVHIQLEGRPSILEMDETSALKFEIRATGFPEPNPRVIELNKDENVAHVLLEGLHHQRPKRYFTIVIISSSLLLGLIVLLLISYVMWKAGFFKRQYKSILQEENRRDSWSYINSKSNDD
α4β1 integrin, sequence (P05556 21-798): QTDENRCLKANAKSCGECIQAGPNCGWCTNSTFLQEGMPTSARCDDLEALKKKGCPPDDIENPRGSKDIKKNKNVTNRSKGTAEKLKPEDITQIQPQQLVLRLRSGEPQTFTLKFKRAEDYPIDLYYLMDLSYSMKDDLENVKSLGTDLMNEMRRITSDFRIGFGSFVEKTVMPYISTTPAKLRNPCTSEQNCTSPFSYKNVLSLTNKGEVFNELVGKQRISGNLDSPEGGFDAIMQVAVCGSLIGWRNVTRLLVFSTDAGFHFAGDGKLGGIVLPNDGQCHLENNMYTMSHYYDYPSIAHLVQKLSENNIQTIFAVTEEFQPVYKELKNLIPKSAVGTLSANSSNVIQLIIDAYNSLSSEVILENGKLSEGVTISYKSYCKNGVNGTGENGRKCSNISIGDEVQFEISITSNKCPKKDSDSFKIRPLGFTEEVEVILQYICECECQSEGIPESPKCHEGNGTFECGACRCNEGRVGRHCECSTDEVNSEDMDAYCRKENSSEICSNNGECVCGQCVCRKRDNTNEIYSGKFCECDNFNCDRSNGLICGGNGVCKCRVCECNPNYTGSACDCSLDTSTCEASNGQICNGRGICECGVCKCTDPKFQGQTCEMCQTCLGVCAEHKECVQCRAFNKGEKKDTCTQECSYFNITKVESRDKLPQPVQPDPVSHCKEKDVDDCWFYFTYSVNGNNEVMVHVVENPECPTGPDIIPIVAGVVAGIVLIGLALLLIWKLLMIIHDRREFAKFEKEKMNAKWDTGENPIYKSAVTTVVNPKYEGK
α4β7 integrin, sequence (P13612 34-1032): as the sequence (P13612 34-1032) above
α4β7 integrin, sequence (P26010 20-798): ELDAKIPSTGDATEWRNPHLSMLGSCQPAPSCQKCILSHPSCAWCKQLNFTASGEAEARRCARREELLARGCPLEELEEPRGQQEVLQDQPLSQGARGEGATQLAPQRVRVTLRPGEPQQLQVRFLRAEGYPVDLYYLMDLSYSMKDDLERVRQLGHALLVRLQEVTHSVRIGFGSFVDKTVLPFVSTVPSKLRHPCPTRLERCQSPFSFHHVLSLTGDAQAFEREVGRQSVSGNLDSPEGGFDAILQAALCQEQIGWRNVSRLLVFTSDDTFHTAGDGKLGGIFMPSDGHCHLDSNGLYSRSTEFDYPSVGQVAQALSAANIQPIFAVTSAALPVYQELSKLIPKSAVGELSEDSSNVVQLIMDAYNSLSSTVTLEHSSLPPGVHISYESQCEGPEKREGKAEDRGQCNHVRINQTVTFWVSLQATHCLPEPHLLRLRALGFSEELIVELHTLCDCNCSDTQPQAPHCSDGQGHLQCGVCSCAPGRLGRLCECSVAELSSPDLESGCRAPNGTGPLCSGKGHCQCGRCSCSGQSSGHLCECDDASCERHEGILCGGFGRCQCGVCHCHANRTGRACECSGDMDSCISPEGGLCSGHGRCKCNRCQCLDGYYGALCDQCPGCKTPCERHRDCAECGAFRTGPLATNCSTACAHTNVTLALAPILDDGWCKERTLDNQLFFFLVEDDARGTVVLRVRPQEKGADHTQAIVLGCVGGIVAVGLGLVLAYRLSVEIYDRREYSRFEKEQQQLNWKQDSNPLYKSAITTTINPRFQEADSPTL

For `Cn1c(=O)c(-c2cccc3c(C[C@H](NC(=O)C4(C(F)(F)F)CCN(C5COCC5C(F)(F)F)CC4)C(=O)O)cccc23)c(C(F)(F)F)c2ccccc21` (some centres unmarked) [Compound 513], the IC50 on α4β7 integrin was 0.01 to 0.1 µM; at α4β1 integrin it was greater than 1 µM.
The like results for `Cn1c(=O)c(-c2cccc3c(C[C@H](NC(=O)C4(C(F)(F)F)CCN(C5CCOC(C(F)(F)F)C5)CC4)C(=O)O)cccc23)c(C(F)(F)F)c2ccccc21` (some centres unmarked) [Compound 514] were, in that order, 0.01 to 0.1 µM and greater than 1 µM.
For `CC(N1CCC(C(=O)N[C@@H](Cc2cccc3c(-c4c(C(F)(F)F)c5ccccc5n(C)c4=O)cccc23)C(=O)O)(C(F)(F)F)CC1)C(F)(F)F` (some centres unmarked) [Compound 515], the results for the IC50 on α4β7 integrin and at α4β1 integrin were 0.1 to 1 µM and greater than 1 µM, respectively.
On to `Cn1c(=O)c(-c2cccc3c(C[C@H](NC(=O)C4(C(F)(F)F)CCN(C(c5ccccc5)C(F)(F)F)CC4)C(=O)O)cccc23)c(C(F)(F)F)c2ccccc21` (some centres unmarked) [Compound 516], for which the IC50 at α4β7 integrin and on α4β1 integrin was greater than 1 µM in each case.
Turning to `Cc1cccc(F)c1C(=O)N[C@@H](Cc1cccc2c(-c3c(C(F)(F)F)c4cc(CCN5CC(F)C5)ccc4n(C)c3=O)cccc12)C(=O)O` [Compound 517], the results for the IC50 at α4β7 integrin and at α4β1 integrin were less than 0.01 µM and greater than 1 µM, respectively.
Consider `CC[C@H](N1CCC(C(=O)N[C@@H](Cc2cccc3c(-c4c(C(F)(F)F)c5ccccc5n(C)c4=O)cccc23)C(=O)O)(C(F)(F)F)CC1)C(F)(F)F` [Compound 518], for which the IC50 on α4β7 integrin and at α4β1 integrin was greater than 1 µM throughout.
Turning to `CC(=O)CN1CCC(C(=O)N[C@@H](Cc2cccc3c(-c4c(C(F)(F)F)c5ccccc5n(C)c4=O)cccc23)C(=O)O)(C(F)(F)F)CC1` [Compound 519], the IC50 on α4β7 integrin is less than 0.01 µM; on α4β1 integrin, 0.1 to 1 µM.
The like results for `Cn1c(=O)c(-c2cccc3c(C[C@H](NC(=O)C4(C)CCCN(CC5COC5)C4)C(=O)O)cccc23)c(C(F)(F)F)c2ccccc21` (some centres unmarked) [Compound 520] were, in that order, 0.1 to 1 µM and greater than 1 µM.
The like results for `Cn1c(=O)c(-c2cccc3c(C[C@H](NC(=O)C4(C)CC5(CN(CC(F)(F)F)C5)C4)C(=O)O)cccc23)c(C(F)(F)F)c2ccccc21` [Compound 521] were, in that order, 0.1 to 1 µM and greater than 1 µM.
For the compound `Cn1c(=O)c(-c2cccc3c(C[C@H](NC(=O)C4(C)CCC5(CCOCC5)CC4)C(=O)O)cccc23)c(C(F)(F)F)c2ccccc21` [Compound 522], the values for the IC50 at α4β7 integrin and on α4β1 integrin were 0.01 to 0.1 µM and greater than 1 µM, respectively.
Take `COc1ccc2ccncc2c1-c1cccc2c(C[C@H](NC(=O)C3(C(F)(F)F)CCN(CC(F)(F)F)CC3)C(=O)O)cccc12` [Compound 523]: the results for the IC50 at α4β7 integrin and on α4β1 integrin were less than 0.01 µM and 0.1 to 1 µM, respectively.
The like results for `O=C(O)[C@H](Cc1cccc2c(-c3c(C(F)(F)F)ccc4cccnc34)cccc12)NC(=O)C1(C(F)(F)F)CCN(CC(F)(F)F)CC1` [Compound 524] were, in that order, 0.01 to 0.1 µM and greater than 1 µM.
As for `O=C(O)[C@H](Cc1cccc2c(-c3cc4ccccc4cn3)cccc12)NC(=O)C1(C(F)(F)F)CCN(C2COC2)CC1` [Compound 525], the IC50 was 0.01 to 0.1 µM at α4β7 integrin and greater than 1 µM on α4β1 integrin.
For the compound `COc1cccc(OC)c1-c1cccc2c(C[C@H](NC(=O)c3c(C)cccc3F)C(=O)O)cccc12` [Compound 526], the values for the IC50 at α4β7 integrin and at α4β1 integrin were 0.01 to 0.1 µM and greater than 1 µM, respectively.
The like results for `COc1ccnc(OC)c1-c1cccc2c(C[C@H](NC(=O)c3c(C)cccc3F)C(=O)O)cccc12` [Compound 527] were, in that order, 0.01 to 0.1 µM and greater than 1 µM.
As to `Cn1c(=O)c(-c2cccc3c(C[C@H](NC(=O)C4(C(F)(F)F)CCN(CCF)CC4)C(=O)O)cccc23)c(C(F)(F)F)c2ccccc21` [Compound 530], the IC50 at α4β7 integrin was less than 0.01 µM; at α4β1 integrin, 0.1 to 1 µM.
On to `COc1cc(CCN(C)C)cc(OC)c1-c1cccc2c(C[C@H](NC(=O)C3(C(F)(F)F)CCN(CC(F)(F)F)CC3)C(=O)O)cccc12` [Compound 531], for which the IC50 at α4β7 integrin is less than 0.01 µM; at α4β1 integrin, 0.1 to 1 µM.
As for `CN1CCCC1c1cc(-c2cccc3c(C[C@H](NC(=O)C4(C(F)(F)F)CCN(CC(F)(F)F)CC4)C(=O)O)cccc23)c2cnccc2c1` (some centres unmarked) [Compound 532], the IC50 at α4β7 integrin was 0.01 to 0.1 µM; at α4β1 integrin it was greater than 1 µM.
As for `Cn1c(=O)c(-c2cccc3c(C[C@H](NC(=O)C4(C(F)(F)F)CCN(CC5(F)CCC5)CC4)C(=O)O)cccc23)c(C(F)(F)F)c2ccccc21` [Compound 533], the IC50 at α4β7 integrin is 0.01 to 0.1 µM; at α4β1 integrin, greater than 1 µM.
For `Cn1c(=O)c(-c2cccc3c(C[C@H](NC(=O)C4(C(F)(F)F)CCN(CC(C)(F)F)CC4)C(=O)O)cccc23)c(C(F)(F)F)c2ccccc21` [Compound 534], the IC50 was 0.01 to 0.1 µM on α4β7 integrin and 0.1 to 1 µM at α4β1 integrin.
The like results for `CCCN1CCC(C(=O)N[C@@H](Cc2cccc3c(-c4c(C(F)(F)F)c5ccccc5n(C)c4=O)cccc23)C(=O)O)(C(F)(F)F)CC1` [Compound 535] were, in that order, 0.01 to 0.1 µM and greater than 1 µM.
Consider `Cn1c(=O)c(-c2cccc3c(C[C@H](NC(=O)C4(C(F)(F)F)CCN(CCC(F)(F)F)CC4)C(=O)O)cccc23)c(C(F)(F)F)c2ccccc21` [Compound 536], for which the IC50 on α4β7 integrin is 0.01 to 0.1 µM; on α4β1 integrin it was greater than 1 µM.
Turning to `Cn1c(=O)c(-c2cccc3c(C[C@H](NC(=O)C4(C(F)(F)F)CCN(CC(F)F)CC4)C(=O)O)cccc23)c(C(F)(F)F)c2cc(C(F)(F)F)ccc21` [Compound 537], the IC50 at α4β7 integrin was 0.01 to 0.1 µM; on α4β1 integrin, greater than 1 µM.
Take `Cn1c(=O)c(-c2cccc3c(C[C@H](NC(=O)C4(C(F)(F)F)CCN(CC#N)CC4)C(=O)O)cccc23)c(C(F)(F)F)c2ccccc21` [Compound 538]: the values for the IC50 on α4β7 integrin and on α4β1 integrin were 0.01 to 0.1 µM and greater than 1 µM, respectively.
Turning to `O=C(O)[C@H](Cc1cccc2c(-c3nccc4ccc(CCCN5CCC(F)(F)CC5)cc34)cccc12)NC(=O)C1(C(F)(F)F)CCN(CC(F)(F)F)CC1` [Compound 539], the IC50 was less than 0.01 µM at α4β7 integrin and greater than 1 µM on α4β1 integrin.
Regarding `COc1cccc(CN2CCCCC2)c1-c1cccc2c(C[C@H](NC(=O)c3c(F)cccc3C(C)C)C(=O)O)cccc12` [Compound 540], the IC50 at α4β7 integrin was less than 0.01 µM; at α4β1 integrin, 0.1 to 1 µM.
Consider `COc1cccc(CN2CCCCC2)c1-c1cccc2c(C[C@H](NC(=O)c3c(F)cccc3C(F)(F)F)C(=O)O)cccc12` [Compound 542], for which the values for the IC50 on α4β7 integrin and on α4β1 integrin were less than 0.01 µM and 0.1 to 1 µM, respectively.
In the case of `COc1cccc(CN2CCCCC2)c1-c1cccc2c(C[C@H](NC(=O)c3c(F)ccc(F)c3C)C(=O)O)cccc12` [Compound 543], the IC50 at α4β7 integrin was less than 0.01 µM; on α4β1 integrin, greater than 1 µM.
On to `COc1cccc(CN2CCCCC2)c1-c1cccc2c(C[C@H](NC(=O)c3c(C)cc(C4CC(F)(F)C4)cc3F)C(=O)O)cccc12` [Compound 544], for which the IC50 at α4β7 integrin is less than 0.01 µM; at α4β1 integrin, 0.1 to 1 µM.
As to `COc1cccc(CN2CCCCC2)c1-c1cccc2c(C[C@H](NC(=O)c3c(C)cc(NCC(F)(F)F)cc3F)C(=O)O)cccc12` [Compound 545], the IC50 was less than 0.01 µM at α4β7 integrin and 0.1 to 1 µM at α4β1 integrin.
As for `CCc1cccc(F)c1C(=O)N[C@@H](Cc1cccc2c(-c3c(CN4CCCCC4)cccc3OC)cccc12)C(=O)O` [Compound 546], the values for the half-inhibitory concentration (IC50) on α4β7 integrin and at α4β1 integrin were less than 0.01 µM and 0.1 to 1 µM, respectively.
The like results for `O=C(O)[C@H](Cc1cccc2c(-c3nccc4ccc(CCCN5CCCCC5)cc34)cccc12)NC(=O)C1(C(F)(F)F)CCN(C2COC2)CC1` [Compound 547] were, in that order, less than 0.01 µM and 0.1 to 1 µM.
Take `CC1(C(=O)N[C@@H](Cc2cccc3c(-c4nccc5ccc(CCCN6CCCCC6)cc45)cccc23)C(=O)O)CC2CCC(C1)N2CC(F)(F)F` (some centres unmarked) [Compound 548]: the figures for the IC50 on α4β7 integrin and at α4β1 integrin were less than 0.01 µM and greater than 1 µM, respectively.
For `O=C(O)[C@H](Cc1cccc2c(-c3nccc4ccc(CCCN5CCCCC5)cc34)cccc12)NC(=O)C1(C(F)(F)F)CCNCC1` [Compound 549], the IC50 at α4β7 integrin was less than 0.01 µM; on α4β1 integrin, greater than 1 µM.
With `O=C(O)[C@H](Cc1cccc2c(-c3ncc(CN4CCCCC4)c4ccccc34)cccc12)NC(=O)C1(C(F)(F)F)CCNCC1` [Compound 550], the IC50 at α4β7 integrin is 0.01 to 0.1 µM; at α4β1 integrin it was greater than 1 µM.
In the same order, the values of `COC(=O)[C@H](Cc1cccc2c(-c3c(OC)ccc(CN(C)C)c3C(F)(F)F)cccc12)NC(=O)OC(C)(C)C` [Compound 551] are less than 0.01 µM and 0.1 to 1 µM.
The like results for `COC(=O)[C@H](Cc1cccc2c(-c3c(OC)ccc(CN4C(C)CCC4C)c3OC)cccc12)NC(=O)c1c(C)cccc1F` (some centres unmarked) [Compound 552] were, in that order, less than 0.01 µM and 0.1 to 1 µM.
For the compound `O=C(O)[C@H](Cc1cccc2c(-c3nccc4c(CN5CCCC5)cccc34)cccc12)NC(=O)C1(C(F)(F)F)CCN(CC(F)(F)F)CC1` [Compound 553], the values for the IC50 at α4β7 integrin and at α4β1 integrin were less than 0.01 µM and 0.1 to 1 µM, respectively.
In the same order, the values of `O=C(O)[C@H](Cc1cccc2c(-c3nccc4c(CN5CCC(F)(F)CC5)cccc34)cccc12)NC(=O)C1(C(F)(F)F)CCN(CC(F)(F)F)CC1` [Compound 554] are 0.01 to 0.1 µM and greater than 1 µM.
Consider `O=C(O)[C@H](Cc1cccc2c(-c3ccc(CN4CCCCC4)c4ccncc34)cccc12)NC(=O)C1(C(F)(F)F)CCN(CC(F)(F)F)CC1` [Compound 555], for which the IC50 on α4β7 integrin was less than 0.01 µM; at α4β1 integrin it was greater than 1 µM.

For the origin of these results see patent US20250313535A1, “ALPHA 4 BETA 7 INTEGRIN MODULATORS AND USES THEREOF” (DICE MOLECULES SV, INC., priority 2022, published 2025).
